Assay results from patent US20230138327A1, “COMPOSITIONS AND METHODS CONTAINING REDUCED NICOTINAMIDE RIBOSIDE FOR PREVENTION AND TREATMENT OF PANCREATIC DISEASES AND CONDITIONS” (SOCIETE DES PRODUITS NESTLE S.A., priority 2020, published 2023).
Entries after “also recorded” stand apart in the source; their conditions may differ.

Experiments:
[1] = test system: primary hepatocytes from control or NRK1 knockout (NRK1KO) mice; assay: NAD+ levels in primary hepatocytes from control or NRK1 knockout mice; assay type: cell-based; settings: 1 hour of treatment
Text: The action of NRH was also NAMPT-independent, based on experiments using FK866, a NAMPT inhibitor. If NRH led to NAD+ synthesis via the formation of NMNH, this hypothetical path would require the phosphorylation of NRH into NMNH. Given the essential and rate-limiting role of NRK1 in NR phosphorylation, we wondered whether the ability of NRH to boost NAD+ levels was NRK1 dependent. To answer this question, we evaluated NRH action in primary hepatocytes from either control or NRK1 knockout (NRK1KO) mice. […] Further, they rule out the possibility that NRH-induced NAD+ […] is driven by NRH oxidation into NR.

INS1-cells = assay: NAD+ levels in INS1-cells after NRH treatment; assay type: cell-based
[2] = Experimental: NR degradation to NAM has been proposed as a limitation for its pharmacological efficacy. To evaluate whether NRH was also susceptible to degradation to NAM, we spiked NRH or NR in isolated mouse plasma. […] We also tested the stability of NRH in other matrixes. […] Finally, we also certified NRH stability in water (pH=7, at room temperature) for 48 h.
3T3 fibroblasts = assay: NAD+ levels in 3T3 fibroblasts after NRH treatment; assay type: cell-based
[3] = Stability of NRH or NR spiked in isolated mouse plasma; assay type: in vitro ADME
Text: (§1) Levels of NRH and other NAD-related metabolites in biological samples were obtained by using a cold liquid-liquid extraction using a mixture of methanol:water:chloroform in 5:3:5 (v/v), from which the polar phase was recovered for hydrophilic interaction ultra-high performance liquid chromatography mass spectrometry (UHPLC-MS) analysis. The UHPLC consisted of a binary pump, a cooled autosampler, and a column oven (DIONEX Ultimate 3000 UHPLC+ Focused, Thermo Scientific), connected to a triple quadrupole spectrometer (TSQ Vantage, Thermo Scientific) equipped with a heated electrospray ionisation (H-ESI) source. Of each sample, 2 μL were injected into the analytical column (2.1 mm×150 mm, 5 μm pore size, 200 Å HILICON iHILIC®-Fusion(P)), guarded by a pre-column (2.1 mm×20 mm, 200 Å HILICON iHILIC®-Fusion(P) Guard Kit) operating at 35° C. The mobile phase (10 mM ammonium acetate at pH 9, A, and acetonitrile, B) was pumped at 0.25 mL/min flow rate over a linear gradient of decreasing organic solvent (0.5-16 min, 90-25% B), followed by re-equilibration for a total run time of 30 min. The MS operated in positive mode at 3500 V with multiple reaction monitoring (MRM). The software Xcalibur v4.1.31.9 (Thermo Scientific) was used for instrument control, data acquisition and processing. Retention time and mass detection was confirmed by authentic standards.

mice [4] = assay: Pancreas NAD+ levels in mice after intraperitoneal administration; assay type: in vivo; settings: I.P. 500 mg/kg, after 1 hour
Experimental: 8 week-old C57BI/6NTac mice were intraperitoneally administered with either saline (as vehicle) or NRH (500 mg/kg). After 1 hour, pancreas NAD+ was measured using commercial kits. All results are expressed as mean+/−SEM of n=4 mice per group, corrected by weight of tissue.

INS-1E cells [5] = assay: Oxidative stress (H2O2)-induced pancreatic β-cell death, cell viability; assay type: cell-based; settings: H2O2 0.4 mM, 24 hours, NRH 0.1 mM
Experimental: (§2) INS-1E cells were treated with hydrogen peroxide (H2O2; 0.4 mM) for 24 hrs in the presence or absence of NRH (0.1 mM). PBS was used as vehicle for NRH. After 24 hrs, cell viability was evaluated by lumiscence using a commercial kit (Cell Title-Glow; Promega). All results are expressed as mean+/−SEM of n=5 experiments. * indicates P<0.05 vs. the respective vehicle treated group.
INS-1E cells were treated with hydrogen peroxide (H2O2; 0.4 mM) for 24 hours in the presence or absence of NRH (0.1 mM). PBS was used as vehicle for NRH. After 24 hours, cell viability was evaluated by luminescence using a commercial kit (Cell Title-Glow; Promega).

[6] = Circulating NRH, NR and NAM in mice after intraperitoneal injection; assay type: in vivo
Text: as §1
(§3) The above results prompted us to test whether NRH could act as an effective NAD+ precursor in vivo. For this, we first intraperitoneally (IP) injected mice with either NR or NRH (500 mg/kg). […] Importantly, NRH was detectable in circulation after IP injection.

INS-1E cells [7] = assay: Inflammatory cytokine (IL-1 b)-induced pancreatic β-cell death, cell viability; assay type: cell-based; settings: IL-1 b 0.25 ng/ml, 24 hours, NRH 0.1 mM
Experimental: as §2, with “Interleukin 1 b (IL-1 b; 0.25 ng/ml)” for “hydrogen peroxide (H2O2; 0.4 mM)”, “luminescence” for “lumiscence”, “n=6” for “n=5”
INS-1E cells were treated with Interleukin 1 b (IL-1 b; 0.25 ng/ml) for 24 hours in the presence or absence of NRH (0.1 mM). PBS was used as vehicle for NRH. After 24 hours, cell viability was evaluated by luminescence using a commercial kit (Cell Title-Glow; Promega).

[8] = Plasma NRH, NR and NAM in mice after oral administration; assay type: in vivo
Text: as §1
Oral administration of NRH led to very similar results to those observed after IP administration. […] NRH was detectable in plasma 1 h after oral administration. In contrast, NR levels were undetectable at 1 h after NR administration.

mice [9] = assay: Tissue NAD+ levels in mice after intraperitoneal injection; assay type: in vivo; settings: IP 500 mg/kg, after 1 h
Experimental: as §3

Compound: NC(=O)C1=CN([C@@H]2O[C@H](CO)[C@@H](O)[C@H]2O)C=CC1 [NRH]
- NAD+ levels in NRK1KO derived primary hepatocytes [1]: not affected by NRK1 deficiency
- NAD+ levels (INS1-cells): highly elevated
- Degradation to NAM in FBS supplemented media [2]: did not degrade to NAM
- NAD+ levels (3T3 fibroblasts): highly elevated
- Compound levels in isolated mouse plasma ([3]; 2 h of incubation): remained stable
- Generation of NAM in isolated mouse plasma ([3]; 2 h of incubation): not generated; also recorded: did not significantly alter NAM levels
- NR production in isolated plasma ([3]; NRH incubation in isolated plasma): did not lead to NR production
- NAD+ levels in the pancreas (mice [4]): efficiently increases NAD+ levels
- Cell viability under hydrogen peroxide (INS-1E cells [5]): protects against oxidative stress-induced pancreatic β-cell death
- NAM levels in circulation ([6]; mice, IP 500 mg/kg): only a very mild increase
- NR in circulation ([6]; mouse, in vivo, ip): much higher levels than those detected after NR injection itself
- NRH in circulation ([6]; mouse, in vivo, ip): detectable
- Cell viability under Interleukin 1 b (INS-1E cells [7]): protects against inflammatory citokyne-induced pancreatic β-cell death
- NRH concentration in plasma ([8]; mice, after oral gavage): 11.16 ± 1.74 µM
- Administered compound in plasma ([8]; mouse, in vivo, po): detectable
- NAD+ levels in kidney (mice [9]): increased NAD+ levels
- NAD+ levels in liver (mice [9]): increased NAD+ levels
- NAD+ levels in muscle (mice [9]): increased NAD+ levels
